tested on: hepatocellular carcinoma cell line Hub-7; assay: Cell proliferation assay, Hub-7 (CELL-TITER GLO); type: cell-based; settings: Hub-7 cells, 24 h incubation, cell viability by CELL-TITER GLO, top concentration 10 μM; read-out: EC50, Inhibition of Hub-7 Cell Proliferation
Experimental: The activity of a compound was determined in a cell proliferation assay using the hepatocellular carcinoma cell line Hub-7. Cells (4,000 cells per well) were seeded in a 96-well tissue culture plate. After incubated overnight, the compound was added at predetermined concentrations, starting with 10 μM and followed by 3-fold serial dilution. After the cells were incubated for 24 h, cell viability was determined using a CELL-TITER GLO® assay. The CELL-TITER GLO® reagent (50 μL) was added to each well and the luminescence was measured by a multimode microplate reader after a brief period of shaking. EC50 values were determined for the compound. The results are summarized in Table 1, wherein A represents a value no greater than 200 nM, B represents a value greater than 200 nM but no greater than 1 μM, C represents a value greater than 1 μM but no greater than 5 μM, and D represents a value greater than 5 μM.

| SMILES | EC50 [nM] |
| --- | --- |
| C#Cc1nc(C(=O)NCCc2ccc(-c3cccc4nccnc34)cc2)cs1 [Compound C11, 2-Ethynyl-N-(4-(quinoxalin-5-yl)phenethyl)thiazole-4-carboxamide] | 200 to 1000 |
| C#Cc1nc(C(=O)NCCc2ccc(-c3ccccc3C(=O)NC)cc2)cs1 [Compound C12, 2-Ethynyl-N-(2-(2′-(methylcarbamoyl)-[1,1′-biphenyl]-4-yl)ethyl)thiazole-4-carboxamide] | 1000 to 5000 |
| C#Cc1nc(C(=O)NCCc2ccc(-c3cccc4c3C(=O)NC4)cc2)cs1 [Compound C13, 2-Ethynyl-N-(4-(3-oxoisoindolin-4-yl)phenethyl)thiazole-4-carboxamide] | 200 to 1000 |
| C#Cc1nc(C(=O)NCCc2ccc(-c3cccc4c3C(=O)C(=O)N4)cc2)cs1 [Compound C14, N-(4-(2,3-Dioxoindolin-4-yl)phenethyl)-2-ethynylthiazole-4-carboxamide] | 200 to 1000 |
| C#Cc1nc(C(=O)NCCc2ccc(-c3ccccc3S(C)(=O)=O)cc2)cs1 [Compound C15, 2-Ethynyl-N-(2-(2′-(methylsulfonyl)-[1,1′-biphenyl]-4-yl)ethyl)thiazole-4-carboxamide] | 200 to 1000 |
| C#Cc1nc(C(=O)NCCc2ccc(-c3cccc4ccnc(O)c34)cc2)cs1 [Compound C16, 2-Ethynyl-N-(4-(1-hydroxyisoquinolin-8-yl)phenethyl)thiazole-4-carboxamide] | 200 to 1000 |
| C#Cc1nc(C(=O)NCCc2ccc(-c3cccc4c3CNC4=O)cc2)cs1 [Compound C17, 2-Ethynyl-N-(4-(1-oxoisoindolin-4-yl)phenethyl)thiazole-4-carboxamide] | ≤ 200 |
| C#Cc1nc(C(=O)NCCc2ccc(-c3cccc4c3C(=O)CC4)cc2)cs1 [Compound C18, 2-Ethynyl-N-(4-(3-oxo-2,3-dihydro-1H-inden-4-yl)phenethyl)thiazole-4-carboxamide] | 200 to 1000 |
| C#Cc1nc(C(=O)NCCc2ccc(-c3cncc4ncsc34)cc2)cs1 [Compound C19, 2-Ethynyl-N-(4-(thiazolo[4,5-c]pyridin-7-yl)phenethyl)thiazole-4-carboxamide] | 200 to 1000 |
| C#Cc1nc(C(=O)NCCc2ccc(-c3ccccc3S(=O)(=O)NC)cc2)cs1 [Compound C20, 2-Ethynyl-N-(2-(2′-(N-methylsulfamoyl)-[1,1′-biphenyl]-4-yl)ethyl)thiazole-4-carboxamide] | 200 to 1000 |
| C#Cc1nc(C(=O)NCCc2ccc(-c3cccc4cnccc34)cc2)cs1 [Compound C21, 2-Ethynyl-N-(4-(isoquinolin-5-yl)phenethyl)thiazole-4-carboxamide] | ≤ 200 |
| C#Cc1nc(C(=O)NCCc2ccc(-c3cccc4c3CN(C)C4=O)cc2)cs1 [Compound C22, 2-Ethynyl-N-(4-(2-methyl-1-oxoisoindolin-4-yl)phenethyl)thiazole-4-carboxamide] | 200 to 1000 |
| C#Cc1nc(C(=O)NCCc2ccc(-c3cccc4ncccc34)cc2)cs1 [Compound C23, 2-Ethynyl-N-(4-(quinolin-5-yl)phenethyl)thiazole-4-carboxamide] | 200 to 1000 |
| C#Cc1nc(C(=O)NCCc2ccc(-c3cccc4ncncc34)cc2)cs1 [Compound C24, 2-Ethynyl-N-(4-(quinazolin-5-yl)phenethyl)thiazole-4-carboxamide] | ≤ 200 |
| C#Cc1nc(C(=O)NCCc2ccc(-c3ccc4scnc4c3)cc2)cs1 [Compound C25, N-(4-(Benzo[d]thiazol-5-yl)phenethyl)-2-ethynylthiazole-4-carboxamide] | 200 to 1000 |
| C#Cc1nc(C(=O)NCCc2cccc(-c3cccc4c3CC(=O)N4C)c2)cs1 [Compound C26, 2-Ethynyl-N-(3-(1-methyl-2-oxoindolin-4-yl)phenethyl)thiazole-4-carboxamide] | 1000 to 5000 |
| C#Cc1nc(C(=O)NCCc2cccc(-c3cccc4c3CC(=O)N4)c2)cs1 [Compound C27, 2-Ethynyl-N-(3-(2-oxoindolin-4-yl)phenethyl)thiazole-4-carboxamide] | 200 to 1000 |
| C#Cc1nc(C(=O)NCc2ccc(-c3cccc4[nH]ccc34)cc2)cs1 [Compound C28, N-(4-(1H-Indol-4-yl)benzyl)-2-ethynylthiazole-4-carboxamide] | 1000 to 5000 |
| C#Cc1nc(C(=O)NCCc2cccc(-c3cccc4nn(C)cc34)c2)cs1 [Compound C29, 2-Ethynyl-N-(3-(2-methyl-2H-indazol-4-yl)phenethyl)thiazole-4-carboxamide] | 200 to 1000 |
| C#Cc1nc(C(=O)NCCc2cccc(-c3cccc4c3cnn4C)c2)cs1 [Compound C30, 2-Ethynyl-N-(3-(1-methyl-1H-indazol-4-yl)phenethyl)thiazole-4-carboxamide] | 1000 to 5000 |
| C#Cc1nc(C(=O)NCCc2ccc(-c3cccc4scnc34)cc2)cs1 [Compound C31, N-(4-(Benzo[d]thiazol-4-yl)phenethyl)-2-ethynylthiazole-4-carboxamide] | 200 to 1000 |
| C#Cc1nc(C(=O)NCCc2ccc(-c3cccc4nn(C)cc34)cc2)cs1 [Compound C32, 2-Ethynyl-N-(4-(2-methyl-2H-indazol-4-yl)phenethyl)thiazole-4-carboxamide] | 200 to 1000 |
| C#Cc1nc(C(=O)NCCc2ccc(-c3cccc4c3cnn4C)cc2)cs1 [Compound C33, 2-Ethynyl-N-(4-(1-methyl-1H-indazol-4-yl)phenethyl)thiazole-4-carboxamide] | 200 to 1000 |
| C#Cc1nc(C(=O)NCCc2ccc(-c3cccc4ncsc34)cc2)cs1 [Compound C34, N-(4-(Benzo[d]thiazol-7-yl)phenethyl)-2-ethynylthiazole-4-carboxamide] | ≤ 200 |

More lines, now with the values ahead:

| EC50 [nM] | SMILES |
| --- | --- |
| 200 to 1000 | C#Cc1nc(C(=O)NCCc2cccc(-c3cccc4c3ccn4C)c2)cs1 [Compound C35, 2-Ethynyl-N-(3-(1-methyl-1H-indol-4-yl)phenethyl)thiazole-4-carboxamide] |
| 200 to 1000 | C#Cc1nc(C(=O)NCCc2cccc(-c3cccc4[nH]ccc34)c2)cs1 [Compound C36, N-(3-(1H-Indol-4-yl)phenethyl)-2-ethynylthiazole-4-carboxamide] |
| 1000 to 5000 | C#Cc1nc(C(=O)NCc2ccc(-c3cccc4c3CC(=O)N4)cc2)cs1 [Compound C37, 2-Ethynyl-N-(4-(2-oxoindolin-4-yl)benzyl)thiazole-4-carboxamide] |
| 1000 to 5000 | C#Cc1nc(C(=O)NCCc2cccc(-c3cccnc3)c2)cs1 [Compound C38, 2-Ethynyl-N-(3-(pyridin-3-yl)phenethyl)thiazole-4-carboxamide] |
| 200 to 1000 | C#Cc1nc(C(=O)NCCc2cccc(-c3cccc4[nH]ncc34)c2)cs1 [Compound C39, N-(3-(1H-Indazol-4-yl)phenethyl)-2-ethynylthiazole-4-carboxamide] |
| 1000 to 5000 | C#Cc1nc(C(=O)NCc2ccc(-c3cccc4[nH]ncc34)cc2)cs1 [Compound C40, N-(4-(1H-Indazol-4-yl)benzyl)-2-ethynylthiazole-4-carboxamide] |
| 1000 to 5000 | C#Cc1nc(C(=O)NCCc2ccc(-c3ccn(C)n3)cc2)cs1 [Compound C41, 2-Ethynyl-N-(4-(1-methyl-1H-pyrazol-3-yl)phenethyl)thiazole-4-carboxamide] |
| 200 to 1000 | C#Cc1nc(C(=O)NCCc2ccc(-c3ccc4ncsc4c3)cc2)cs1 [Compound C42, N-(4-(Benzo[d]thiazol-6-yl)phenethyl)-2-ethynylthiazole-4-carboxamide] |
| 200 to 1000 | C#Cc1nc(C(=O)NCCc2ccc(-c3cccc4c3CC(=O)N4C)cc2)cs1 [Compound C43, 2-Ethynyl-N-(4-(1-methyl-2-oxoindolin-4-yl)phenethyl)thiazole-4-carboxamide] |
| ≤ 200 | C#Cc1nc(C(=O)NCc2ccc3ccccc3n2)cs1 [Compound C44, 2-ethynyl-N-(quinolin-2-ylmethyl)thiazole-4-carboxamide] |
| 1000 to 5000 | C#Cc1nc(C(=O)NCCc2ccccc2C#N)cs1 [Compound C45, N-(2-Cyanophenethyl)-2-ethynylthiazole-4-carboxamide] |
| 200 to 1000 | C#Cc1nc(C(=O)NCc2cccc(CC(=O)OC)c2)cs1 [Compound C46, Methyl 2-(3-((2-ethynylthiazole-4-carboxamido)methyl)phenyl)acetate] |
| 1000 to 5000 | C#Cc1nc(C(=O)NCc2cccc(CC(N)=O)c2)cs1 [Compound C47, N-(3-(2-Amino-2-oxoethyl)benzyl)-2-ethynylthiazole-4-carboxamide] |
| 200 to 1000 | C#Cc1nc(C(=O)NCCc2ccc(-c3cccc4c3CC(=O)N4)cc2)cs1 [Compound C48, 2-Ethynyl-N-(4-(2-oxoindolin-4-yl)phenethyl)thiazole-4-carboxamide] |
| ≤ 200 | C#Cc1nc(C(=O)NCCc2ccc(-c3cccc4[nH]ncc34)cc2)cs1 [Compound C49, N-(4-(1H-Indazol-4-yl)phenethyl)-2-ethynylthiazole-4-carboxamide] |
| ≤ 200 | C#Cc1nc(C(=O)NCCc2ccc(-c3cccc4c3ccn4C)cc2)cs1 [Compound C50, 2-Ethynyl-N-(4-(1-methyl-1H-indol-4-yl)phenethyl)thiazole-4-carboxamide] |
| 200 to 1000 | C#Cc1nc(C(=O)NCCc2ccc(-c3cccc4[nH]ccc34)cc2)cs1 [Compound C51, N-(4-(1H-Indol-4-yl)phenethyl)-2-ethynylthiazole-4-carboxamide] |
| 200 to 1000 | C#Cc1nc(C(=O)NCc2cccc(Cl)c2)c(C)s1 [Compound C52, N-(3-Chlorobenzyl)-2-ethynyl-5-methylthiazole-4-carboxamide] |
| 200 to 1000 | C#Cc1nc(C(=O)NCCc2ccc(-c3cscn3)cc2)cs1 [Compound C53, 2-Ethynyl-N-(4-(thiazol-4-yl)phenethyl)thiazole-4-carboxamide] |

Reference: patent US20240101546A1, “HETEROARYL-ACETYLENES, PHARMACEUTICAL COMPOSITIONS THEREOF, AND THEIR THERAPEUTIC APPLICATIONS” (Eubulus Biotherapeutics Inc., priority 2020, published 2024)
